Reference: patent US20250332279A1, “PHARMACEUTICAL COMPOSITION AND METHOD FOR TREATING GLIOBLASTOMAS” (National Cheng Kung University, priority 2024, published 2025)

Test system: U87MG intracranial brain tumors
Experiment: In vivo antitumor efficiency of gene silencing-enhanced radiotherapy
Set-up: species or system mice
Experimental: For the animal experiments, luciferase expression plasmid-transfected U87MG cell-implanted pathogen-free male NU/NU mice (5-7 weeks old, 20-25 g, from BioLASCO, Taiwan) were employed in this study. U87MG cells were cultured at 37° C. with 5% CO2 in M EM with 10% fetal bovine serum and 1% penicillin/streptomycin (Invitrogen). Mice were anaesthetized with 2% isoflurane gas and immobilized on a stereotactic frame to implant U87MG cells. A sagittal incision in the skin overlying the calvarium was created. U87MG cell implantation was performed by creating a hole in the exposed cranium 1.5 mm anterior and 2 mm lateral to the bregma using a 27G needle. A total volume of 5 μL of U87MG cell suspension (1×10^5 cell/μL) was injected at a depth of 3 mm from the brain surface over a 5 min period. The needle was withdrawn over 2 min. MRI was performed to monitor brain tumor growth for 7 days after tumor cell implantation.
The details of the CE D procedure are as described in our previous study. Briefly, infusion cannulas were fabricated with silica tubing (Polymicro Technologies, Phoenix, AZ, USA) fused to a 0.1 mL syringe (Plastic One, Roanoke, VA, USA) with a 0.5 mm stepped-tip needle that protruded from the silica guide base. The treatment agents (VLPs or drugs) were loaded into the syringes and attached to a microinfusion pump (Bioanalytical Systems, Lafayette, IN, USA). The syringe with a silica cannula was mounted onto a stereotactic holder and then lowered through a puncture hole made in the skull to the implanted tumor. The sample solution was infused at a rate of 1 μL/min until a volume of 5 μL had been delivered, and the cannula was removed 2 min later.
All animal experiments were approved by the Animal Committee of Chang Gung University and adhered to the experimental animal care guidelines (IACUC NO. CGU106-036). Mice were raised in a room with a thermostat at 26° C. Nu/Nu mice weighing approximately 25-30 g (5-6 weeks old) were tested to confirm the efficacy of the proposed approach. Intracranial brain tumors were induced by transplantation of U87MG cells into mouse brains. Briefly, cultured U87MG cells (5×10^5 cells/mouse) were injected over a 2 min period into the brain using a syringe, and needle withdrawal was conducted over another period of 0.5 min. A total of 50 mice were used, and the experiments were divided into five groups. In Group 1 (n=10), the mice received no further treatment after transplantation of U87MG cells, and these mice served as the control. In Group 2 (n=10), the mice received TrQβ VLPs (5 μM) via CED infusion two times (every 7 days) after 7 days of U87MG cell transplantation. […] The intracranial tumor volume in mice was measured by MR imaging. The survival time was calculated from the day of U87MG cell inoculation (0 day) to the day of death. […]

[1] = CED infusion followed by 2Gy X-ray irradiation

N.N.O=C([O-])C1(C(=O)[O-])CCC1.[Pt+2] [carboplatin]
median survival [1]: 51 days | mice survived over 54 days [1]: 10% | tumor volume by MRI (Day 34, CED infusion followed by 2Gy X-ray irradiation): 18.9±17.8 mm3 | tumor volume by MRI (Day 41, CED infusion followed by 2Gy X-ray irradiation): 55.2±36.5 mm3
